From patent publication US20070203073A1 (priority 2005, published 2007)

Tested on: SARS-CoV S protein
Assay type: cell-based

## CC(=O)N[C@@H](CC(C)C)C(=O)N[C@@H](CC(C)C)C(=O)N[C@H](C=O)CCCNC(=N)N [leupeptin]
  effect on cell-cell fusion: reduced
